pIC50: −log10 of the molar value. Where two headings read alike, the source gives them in different places.
Legend:
SHP2 [1] = biological target: T1, SHP2 (Homo sapiens, UniProt Q06124); test: biochemical; details: read-out: SHP2 inhibition (%)@0.1 μM
T1 sequence (Q06124 1-593): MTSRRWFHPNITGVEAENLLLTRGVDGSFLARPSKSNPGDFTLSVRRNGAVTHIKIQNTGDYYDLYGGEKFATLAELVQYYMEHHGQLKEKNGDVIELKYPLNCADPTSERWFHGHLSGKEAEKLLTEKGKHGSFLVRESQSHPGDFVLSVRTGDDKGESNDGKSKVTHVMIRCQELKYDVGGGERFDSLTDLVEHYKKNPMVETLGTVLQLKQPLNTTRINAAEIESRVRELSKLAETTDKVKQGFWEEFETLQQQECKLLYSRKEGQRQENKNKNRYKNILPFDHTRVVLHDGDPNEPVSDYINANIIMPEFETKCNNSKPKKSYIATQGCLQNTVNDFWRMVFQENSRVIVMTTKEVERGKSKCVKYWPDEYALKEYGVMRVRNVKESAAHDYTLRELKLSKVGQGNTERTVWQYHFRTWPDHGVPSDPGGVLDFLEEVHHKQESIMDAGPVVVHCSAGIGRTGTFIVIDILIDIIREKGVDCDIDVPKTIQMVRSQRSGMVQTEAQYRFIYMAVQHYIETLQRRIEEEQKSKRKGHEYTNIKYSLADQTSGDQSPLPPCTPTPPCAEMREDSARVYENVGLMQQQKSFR

SHP2 [2] = biological target: T1, SHP2; test: Phosphatase assays (IC50), DiFMUP substrate
MV-4-11 = test: Cell proliferation assay (MTS/PMS); type: cell-based; details: Homo sapiens, MV4-11; MV-4-11 cell proliferation, MTS/PMS readout at day 8, compounds added 24 hours after plating; read-out: IC50

For `Nc1nc(N2CCC3(CC2)c2ccccc2C[C@H]3N)cnc1Sc1ccnc(N)c1Cl` [Example 1, (R)-1′-(6-amino-5-((2-amino-3-chloropyridin-4-yl)thio)pyrazin-2-yl)-2,3-dihydrospiro[indene-1,4′-piperidin]-2-amine], the inhibition at 0.1 µM (SHP2 [1]) was 87% and the pIC50 (SHP2 [2]; SHP2 0.5 nM activated with dPEG8 peptide, DiFMUP 12 μM, 30 min) was 8.10.
With `CC(=O)N1CC(F)(F)c2c(Sc3ncc(N4CCC5(CC4)CC4CC4[C@H]5N)nc3N)cccc21` (stereo partly drawn) [Example 7, 1-(4-((3-amino-5-((2R)-2-aminospiro [bicyclo[3.1.0]hexane-3,4′-piperidin]-1′-yl)pyrazin-2-yl)thio)-3,3-difluoro-indolin-1-yl)ethan-1-one] the inhibition at 0.1 µM (SHP2 [1]) was 81% and the pIC50 (SHP2 [2]) was 7.66.
Work on `Nc1nc(N2CCC3(CC2)Cc2nc(Cl)sc2[C@H]3N)cnc1Sc1ccnc(N)c1Cl` [Example 69, (S)-1′-(6-amino-5-((2-amino-3-chloropyridin-4-yl)thio)pyrazin-2-yl)-2-chloro-4,6-dihydro-spiro[cyclopenta[d]thiazole-5,4′-piperidin]-6-amine] yielded an inhibition at 0.1 µM (SHP2 [1]) of 89% and a pIC50 (MV-4-11) of 8.40.
`Nc1nccc(Sc2cnc(N3CCC4(CC3)Nc3ccccc3[C@H]4N)cn2)c1Cl` [Example 71, (R)-1′-(5-((2-amino-3-chloropyridin-4-yl)thio)pyrazin-2-yl)spiro[indoline-2, 4′-piperidin]-3-amine] showed an inhibition at 0.1 µM (SHP2 [1]) of 86% and a pIC50 (MV-4-11) of 7.89.
Compound `Nc1nc(N2CCC3(CC2)Cc2ncccc2[C@H]3N)cnc1Sc1ccnc2ccccc12` [Example 83, (S)-1′-(6-amino-5-(quinolin-4-yl-thio)pyrazin-2-yl)-5,7-dihydrospiro [cyclopenta[b]pyridine-6,4′-piperidin]-5-amine] has an inhibition at 0.1 µM (SHP2 [1]) of 91% and a pIC50 (MV-4-11) of 7.80.
Work on `Nc1nc(N2CCC3(CC2)Cc2ncccc2[C@H]3N)cnc1Sc1cccc(Cl)c1Cl` [Example 84, (S)-1′-(6-amino-5-((2,3-dichloro-phenyl)thio)pyrazin-2-yl)-5,7-dihydrospiro[cyclopenta [b]pyridine-6, 4′-piperidin]-5-amine] yielded a pIC50 (SHP2 [2]) of 8.52.
`CN(C)c1nccc(Sc2cnc(N3CCC4(CC3)Cc3ncccc3[C@H]4N)cn2)c1Cl` [Example 85, (S)-1′-(5-((3-chloro-2-(dimethyl-amino)pyridin-4-yl)thio)pyrazin-2-yl)-5,7-dihydrospiro [cyclopenta [b]pyridine-6,4′-piperidin]-5-amine] gave a pIC50 (SHP2 [2]) of 8.22.
Work on `N[C@@H]1c2cccnc2CC12CCN(c1cnc(Sc3ccncc3)cn1)CC2` [Example 86, (S)-1′-(5-(pyridin-4-ylthio)pyrazin-2-yl)-5,7-dihydrospiro [cyclopenta [b]pyridine-6,4′-piperidin]-5-amine] yielded a pIC50 (SHP2 [2]) of 7.85.
`Nc1nc(N2CCC3(CC2)Cc2ncccc2[C@H]3N)cnc1Sc1ccncc1F` [Example 87, (S)-1′-(6-amino-5-((3-fluoropyridin-4-yl)thio)pyrazin-2-yl)-5,7-dihydrospiro[cyclopenta [b]pyridine-6,4′-piperidin]-5-amine] gave a pIC50 (SHP2 [2]) of 8.05.
`Nc1nc(N2CCC3(CC2)Cc2scnc2[C@H]3N)cnc1Sc1ccncc1F` [Example 88, (S)-1′-(6-amino-5-((3-fluoropyridin-4-yl)thio)pyrazin-2-yl)-4,6-dihydrospiro[cyclopenta [d]thiazole-5,4′-piperidin]-4-amine] was tested, and the pIC50 (SHP2 [2]) was 7.44.
In the case of `Nc1nc(N2CCC3(CC2)Cc2ncccc2[C@H]3N)cnc1Sc1ccnc(N)c1F` [Example 91, (S)-1′-(6-amino-5-((2-amino-3-fluoropyridin-4-yl)thio)pyrazin-2-yl)-5,7-dihydrospiro [cyclopenta [b]pyridine-6,4′-piperidin]-5-amine], the inhibition at 0.1 µM (SHP2 [1]) was 88% and the pIC50 (MV-4-11) was 7.92.
`Nc1nccc(Sc2cnc(N3CCC4(CC3)Cc3ncccc3[C@H]4N)cn2)c1F` [Example 92, (S)-1′-(5-((2-amino-3-fluoropyridin-4-yl)thio)pyrazin-2-yl)-5,7-dihydrospiro[cyclopenta [b]pyridine-6,4′-piperidin]-5-amine] showed an inhibition at 0.1 µM (SHP2 [1]) of 92% and a pIC50 (MV-4-11) of 8.05.
`Nc1nccc(Sc2cnc(N3CCC4(CC3)Cc3sc(Cl)nc3[C@H]4N)cn2)c1Cl` [Example 95, (S)-1′-(5-((2-amino-3-chloropyridin-4-yl)thio)pyrazin-2-yl)-2-chloro-4,6-dihydrospiro [cyclopenta[d]thiazole-5,4′-piperidin]-4-amine] gave an inhibition at 0.1 µM (SHP2 [1]) of 73% and a pIC50 (MV-4-11) of 8.00.
Compound `COc1nccc(Sc2cnc(N3CCC4(CC3)Cc3ncccc3[C@H]4N)cn2)c1Cl` [Example 99, (S)-1′-(5-((3-chloro-2-methoxy-pyridin-4-yl)thio)pyrazin-2-yl)-5,7-dihydrospiro [cyclopenta[b]pyridine-6,4′-piperidin]-5-amine] has an inhibition at 0.1 µM (SHP2 [1]) of 89% and a pIC50 (MV-4-11) of 7.74.
Compound `COc1nccc(Sc2ncc(N3CCC4(CC3)Cc3ncccc3[C@H]4N)nc2N)c1Cl` [Example 100, (S)-1′-(6-amino-5-((3-chloro-2-methoxypyridin-4-yl)thio)pyrazin-2-yl)-5,7-dihydro-spiro[cyclopenta [b]pyridine-6,4′-piperidin]-5-amine] has an inhibition at 0.1 µM (SHP2 [1]) of 88% and a pIC50 (MV-4-11) of 7.52.
Work on `N[C@@H]1c2cccnc2CC12CCN(c1cnc(Sc3ccnc(Cl)c3Cl)cn1)CC2` [Example 104, (S)-1′-(5-((2,3-dichloropyridin-4-yl)thio)pyrazin-2-yl)-5,7-dihydrospiro [cyclopenta [b]pyridine-6,4′-piperidin]-5-amine] yielded an inhibition at 0.1 µM (SHP2 [1]) of 87% and a pIC50 (MV-4-11) of 8.05.
`Nc1cc(Sc2cnc(N3CCC4(CC3)Cc3ncccc3[C@H]4N)cn2)c(Cl)cn1` [Example 112, (S)-1′-(5-((2-amino-5-chloro-pyridin-4-yl)thio)pyrazin-2-yl)-5,7-dihydrospiro [cyclopenta [b]pyridine-6,4′-piperidin]-5-amine] showed an inhibition at 0.1 µM (SHP2 [1]) of 87% and a pIC50 (MV-4-11) of 7.52.
`Nc1nc(N2CCC3(CC2)Cc2ncccc2C3N)cnc1Sc1ccnc(N)c1Cl` (stereo not drawn) [Example 121, 1′-(6-amino-5-((2-amino-3-chloropyridin-4-yl)thio)pyrazin-2-yl)-5,7-dihydrospiro [cyclopenta[b]pyridine-6,4′-piperidin]-5-amine] was tested, and the pIC50 (SHP2 [2]) was 7.25.
For `Nc1nc(N2CCC3(CC2)Cc2ccc(O)cc2[C@H]3N)cnc1Sc1ccnc(N)c1Cl` [Example 137, (S)-1-amino-1′-(6-amino-5-((2-amino-3-chloropyridin-4-yl)thio)pyrazin-2-yl)-1,3-dihydrospiro[indene-2,4′-piperidin]-6-ol], the inhibition at 0.1 µM (SHP2 [1]) was 89% and the pIC50 (MV-4-11) was 8.48.
`Nc1nccc(Sc2cnc(N3CCC4(CC3)Cc3scnc3[C@H]4N)cn2)c1Cl` [Example 152, (S)-1′-(5-((2-amino-3-chloropyridin-4-yl)thio)pyrazin-2-yl)-4,6-dihydrospiro[cyclopenta[d]thiazole-5,4′-piperidin]-4-amine] was tested, and the pIC50 (SHP2 [2]) was 8.52.
`Nc1nc(N2CCC3(CC2)Cc2ncsc2[C@H]3N)cnc1Sc1ccnc(N)c1Cl` [Example 155, (S)-1′-(6-amino-5-((2-amino-3-chloropyridin-4-yl)thio)pyrazin-2-yl)-4,6-dihydrospiro[cyclopenta[d]thiazole-5,4′-piperidin]-6-amine] gave a pIC50 (SHP2 [2]) of 8.52.
With `Nc1nccc(Sc2cnc(N3CCC4(CC3)Cc3ncsc3[C@H]4N)cn2)c1Cl` [Example 156, (S)-1′-(5-((2-amino-3-chloropyridin-4-yl)thio)pyrazin-2-yl)-4,6-dihydrospiro[cyclopenta[d]thiazole-5,4′-piperidin]-6-amine] the inhibition at 0.1 µM (SHP2 [1]) was 80% and the pIC50 (MV-4-11) was 7.34.

From US10988466B2, “Heterocyclic derivatives useful as SHP2 inhibitors” (Jacobio Pharmaceuticals Co., Ltd., priority 2017, dated 2021)
